Assay results as given in patent publication US6586468B1, “ω-substituted phenyl-prostaglandin E derivatives and drugs containing the same as the active ingredient” (Ono Pharmaceutical Co., Ltd., priority 1998, dated 2003).

What was measured:
EP4 = target: T1, EP4 (Mus musculus, UniProt P32240); test: Binding assay using expression CHO cell of prostanoid receptor subtype, [3H]-PGE2 binding inhibition (EP4); conditions: membrane fraction of CHO cells expressing mouse EP4; [3H]-PGE2 2.5 nM; Ki=IC50/(1+([C]/Kd)); read-out: Dissociation Constant Ki (μM) EP4
T1 construct: expressed in transfected cells; host or cells: CHO cells (membrane fraction)
Method: (§1) (i) Binding assay using Expression cell of prostanoids receptor subtype
(§2) The preparation of membrane fraction was carried out according to the method of Sugimoto et al. [J. Biol. Chem., 267, 6463-6466 (1992)], using expression CHO cell of the prostanoids receptor subtype (mouse EP1, EP2, EP3α, EP4 and human IP).
(§3) The standard assay mixture containing membrane fraction (0.5 mg/ml) and [^3H]-PGE2 in a final volume of 200 μl was incubated for 1 hour at room temperature. The reaction was terminated by addition of ice-cooled buffer (3 ml). The mixture was filtered through a GF/B glass filter under reduced pressure. The radioactivity associated with the filter was measured by liquid scintillation counting.
(§4) Kd and Bmax values were determined from Scatchard plots [Ann. N. Y. Acad. Sci., 51, 660 (1949)]. Non-specific binding was calculated as the binding in the presence of an excess (2.5 μM) of unlabeled PGE2. In the measurement of ^3H-PGE2 binding inhibitory activity, [3H]-PGE2 (2.5 nM) and various concentrations of the compounds of the present invention were added. The following buffer was used in all reactions.
(§5) Buffer; 10 mM potassium phosphate (pH 6.0), 1 mM EDTA, 10 mM MgCl2, 0.1 M NaCl.
(§6) The dissociation constant Ki (μM) of each compound was calculated by the following equation.

EP3α = target: T2, EP3α (Mus musculus, UniProt P30557); test: Binding assay using expression CHO cell of prostanoid receptor subtype, [3H]-PGE2 binding inhibition (EP3α); conditions: membrane fraction of CHO cells expressing mouse EP3α; [3H]-PGE2 2.5 nM; Ki=IC50/(1+([C]/Kd)); read-out: Dissociation Constant Ki (μM) EP3α
T2 construct: expressed in transfected cells; host or cells: CHO cells (membrane fraction)
T2 sequence (P30557 1-365): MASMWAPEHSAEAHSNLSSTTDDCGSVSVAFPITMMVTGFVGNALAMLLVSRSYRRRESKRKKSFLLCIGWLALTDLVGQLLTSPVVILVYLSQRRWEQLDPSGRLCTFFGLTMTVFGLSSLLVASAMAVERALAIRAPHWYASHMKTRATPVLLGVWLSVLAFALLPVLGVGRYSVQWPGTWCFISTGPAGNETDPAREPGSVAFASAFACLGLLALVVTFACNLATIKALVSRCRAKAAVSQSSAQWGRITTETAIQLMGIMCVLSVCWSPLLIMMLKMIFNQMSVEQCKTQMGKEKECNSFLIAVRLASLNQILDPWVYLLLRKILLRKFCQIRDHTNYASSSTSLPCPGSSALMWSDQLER
Method: as §1, §2, §3, §4, §5, §6

T1 sequence (P32240 whole entry): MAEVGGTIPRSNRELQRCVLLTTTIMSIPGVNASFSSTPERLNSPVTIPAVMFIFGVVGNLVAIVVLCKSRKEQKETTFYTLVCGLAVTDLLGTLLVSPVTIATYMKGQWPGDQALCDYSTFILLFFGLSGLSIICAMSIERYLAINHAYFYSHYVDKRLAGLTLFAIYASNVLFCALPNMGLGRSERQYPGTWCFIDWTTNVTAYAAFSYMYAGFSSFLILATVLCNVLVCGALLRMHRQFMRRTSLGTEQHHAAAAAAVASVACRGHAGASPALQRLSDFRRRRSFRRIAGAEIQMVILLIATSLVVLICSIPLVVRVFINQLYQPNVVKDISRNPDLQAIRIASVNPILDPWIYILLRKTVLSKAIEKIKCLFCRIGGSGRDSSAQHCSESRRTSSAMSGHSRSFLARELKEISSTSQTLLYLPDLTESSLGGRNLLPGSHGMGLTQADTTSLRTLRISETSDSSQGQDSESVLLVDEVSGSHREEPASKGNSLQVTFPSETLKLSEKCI

SMILES	Ki (EP4)	Ki (EP3α)
CCCOCc1cccc(CC(O)/C=C/[C@@H]2[C@@H](C/C=C\CCCC(=O)O)[C@H](F)C[C@H]2O)c1 (stereo partly drawn) [4 (12), (9β,11α,15ξ)-9-Fluoro-11,15-dihydroxy-16-(3-propyloxymethylphenyl)-17,18,19,20-tetranorprost-5Z,13E-dienoic Acid]	0.0059 µM	0.35 µM
O=C(O)CCCCCC[C@H]1C(=O)C[C@@H](O)[C@@H]1/C=C/[C@@H](O)Cc1cccc(CCF)c1 [2 (1), (11α,15α)-9-oxo-11,15-Dihydroxy-16-[3-(2-fluoroethyl)phenyl]-17,18,19,20-tetranorprost-13E-enoic Acid]	0.0016 µM	0.12 µM
COCc1cccc(C[C@H](O)/C=C/[C@H]2[C@H](O)CC(=O)[C@@H]2CCCCCCC(=O)O)c1 [Example 2, (11α,15α)-9-oxo-11,15-Dihydroxy-16-(3-methoxymethylphenyl)-17,18,19,20-tetranorprost-13E-enoic Acid]	0.006 µM	0.82 µM
COc1ccc(C[C@H](O)/C=C/[C@H]2[C@H](O)CC(=O)[C@@H]2C/C=C\CCCC(=O)O)cc1 [reference compound]	0.067 µM	0.048 µM
CCOCc1cccc(C[C@H](O)/C=C/[C@H]2[C@H](O)CC(=O)[C@@H]2C/C=C\CCCC(=O)O)c1 [2 (11), (11α,15α)-9-oxo-11,15-Dihydroxy-16-(3-ethoxymethylphenyl)-17,18,19,20-tetranorprost-5Z,13E-dienoic Acid]	0.01 µM	0.54 µM
Cc1ccc(C[C@H](O)/C=C/[C@H]2[C@H](O)CC(=O)[C@@H]2C/C=C\CCCC(=O)O)cc1 [reference compound]	0.032 µM	0.011 µM
CCOCc1cccc(C[C@H](O)/C=C/[C@@H]2[C@@H](C/C=C\CCCC(=O)O)[C@H](Cl)C[C@H]2O)c1 [8 (6), (9β,11α,15α)-9-Chloro-11,15-dihydroxy-16-(3-ethoxymethylphenyl)-17,18,19,20-tetranorprost-5Z,13E-dienoic Acid]	0.0015 µM	0.04 µM
COCc1cc(CC(O)/C=C/[C@@H]2[C@@H](C/C=C\CCCC(=O)O)[C@H](Cl)C[C@H]2O)ccc1O (stereo partly drawn) [Example 4, (9β,11α,15ξ)-9-Chloro-11,15-dihydroxy-16-(3-methoxymethyl-4-hydroxyphenyl)-17,18,19,20-tetranorprost-5Z,13E-dienoic Acid]	0.0036 µM	3.2 µM
CCOCc1cccc(CC(O)/C=C/[C@H]2[C@H](O)CC(=O)[C@@H]2CCc2ccc(C(=O)O)cc2)c1 (stereo partly drawn) [5 (12), (11α,15α)-9-oxo-11,15-Dihydroxy-16-(3-ethoxymethylphenyl)-1,6-(1,4-phenylene)-2,3,4,5,17,18,19,20-octanorprost-13E-enoic Acid]	0.008 µM	6 µM
Cc1cc(C[C@H](O)/C=C/[C@H]2[C@H](O)CC(=O)[C@@H]2CCCCCCC(=O)O)ccc1O [2 (4), (11α,15α)-9-oxo-11,15-dihydroxy-16-(3-methyl-4-hydroxyphenyl)-17,18,19,20-tetranorprost-13E-enoic Acid]	0.003 µM	> 10 µM
COCc1cccc(C[C@H](O)/C=C/[C@H]2CCC(=O)[C@@H]2C/C=C\CCCC(=O)O)c1 [2 (15), (15α)-9-oxo-15-Hydroxy-16-(3-methoxymethylphenyl)-17,18,19,20-tetranorprost-5Z,13E-dienoic Acid]	0.0026 µM	1.4 µM
